Legend:
EED (1-441)-His protein = EED (1-441)-His protein (Homo sapiens (Human), UniProt O75530); experiment: EED-H3K27Me3 peptide competition binding assay by AlphaScreen; settings: EED Alphascreen binding Qualified assay
Procedure: Then 4 μL of detection beads mix was added to the plate and incubate in the dark at the rt for 1 h. The final concentration of donor and acceptor beads was 10 μg/mL for each. […] The data were then fit to a dose response equation using the program Helios (Novartis) to get the IC50 values. […] Sebaugh, J. […] Each compound was counter screened to determine if it interfered with the AlphaScreen beads. […] The plates were then incubated for 1 h at rt in dark before being read on EnVison.

[1] = system: H3K27 methylation in G401 cell; experiment: ELISA (H3K27 methylation) assay; type: cell-based; settings: Homo sapiens, G-401, ELISA Qualified assay, 48 h, read-out: (c) IC50
Procedure: ELISA (H3K27 Methylation) Assay
Representative compounds of the present invention were serially and separately diluted 3-fold in DMSO to obtain a total of eight or twelve concentrations. Then the compounds were added to G401 cell cultured in 384-well plate at 1:500 dilution to obtain the highest concentration of 20 μM. The cells were further cultured for 48 h before ELISA procedure.
ELISA protocol: Cell lysates were transferred to the wells of a 384-well plate and the final volume was adjusted to 50 μL per well with PBS. The plate was sealed, centrifuged at 2,000 rpm for 2 min and incubated at 4° C. for about 16 h. The plate was washed with TBST buffer (1×TBS (10×TBS: 24.2 g Tris (Sigma, T6066), 80 g NaCl (Sigma, S3014) to 1 L of water and adjust pH to 7.6 with HCl) with 0.1% Tween-20). Blocking buffer (TBST, 5% BSA; 50 μL per well) was added and the plate was incubated for 1 h at rt. The blocking buffer was removed and primary antibody was added (30 μL per well). […] The primary antibody was incubated in the plate at rt for 1 h. The wells were washed with TBST and incubated with secondary antibody for 1 h at rt. […] After 1 h of incubation at rt, the wells were washed with TBST. […] The signal was read using a PerkinElmer Envision Reader. The H3K27 methylation readouts were normalized using H3 signal and then percentage inhibition was calculated against the samples treated with DMSO. The data were then fit to a dose response curve using the program Helios to get the IC50 values of the test compound.

[2] = biological target: wild type PRC2 (wtPRC2) complex (Homo sapiens (Human), UniProt O75530); experiment: EED LC-MS assay; type: biochemical; settings: EED LC-MS Qualified assay; read-out: (b) IC50
Procedure: EED LC-MS Assay Representative compounds of the present invention were serially and separately diluted 3-fold in DMSO to obtain a total of eight or twelve concentrations. […] A 6 μL solution of 3 μM of the peptide substrate H3K27Me0 (histone H3[21-44]-biotin) in reaction buffer was added to initiate each reaction. […] The data were then fit to a dose response equation using the program Helios to get the IC50 values of the test compound.

Chain of EED (1-441)-His protein (O75530 whole entry): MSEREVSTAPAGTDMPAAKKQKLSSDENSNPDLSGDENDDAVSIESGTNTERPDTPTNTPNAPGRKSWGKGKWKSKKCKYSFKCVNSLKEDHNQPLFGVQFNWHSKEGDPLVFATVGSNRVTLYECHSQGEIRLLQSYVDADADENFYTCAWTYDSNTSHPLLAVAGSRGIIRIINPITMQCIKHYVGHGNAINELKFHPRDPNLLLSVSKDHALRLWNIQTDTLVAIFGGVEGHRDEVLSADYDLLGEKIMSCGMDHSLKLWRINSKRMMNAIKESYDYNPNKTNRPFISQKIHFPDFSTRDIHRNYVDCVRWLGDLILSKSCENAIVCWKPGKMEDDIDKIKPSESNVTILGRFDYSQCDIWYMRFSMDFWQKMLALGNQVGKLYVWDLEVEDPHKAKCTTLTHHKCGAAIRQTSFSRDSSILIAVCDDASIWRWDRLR
Chain of wild type PRC2 (wtPRC2) complex (O75530 whole entry): as above
Chain of wild type PRC2 (wtPRC2) complex (Q15910 whole entry partner): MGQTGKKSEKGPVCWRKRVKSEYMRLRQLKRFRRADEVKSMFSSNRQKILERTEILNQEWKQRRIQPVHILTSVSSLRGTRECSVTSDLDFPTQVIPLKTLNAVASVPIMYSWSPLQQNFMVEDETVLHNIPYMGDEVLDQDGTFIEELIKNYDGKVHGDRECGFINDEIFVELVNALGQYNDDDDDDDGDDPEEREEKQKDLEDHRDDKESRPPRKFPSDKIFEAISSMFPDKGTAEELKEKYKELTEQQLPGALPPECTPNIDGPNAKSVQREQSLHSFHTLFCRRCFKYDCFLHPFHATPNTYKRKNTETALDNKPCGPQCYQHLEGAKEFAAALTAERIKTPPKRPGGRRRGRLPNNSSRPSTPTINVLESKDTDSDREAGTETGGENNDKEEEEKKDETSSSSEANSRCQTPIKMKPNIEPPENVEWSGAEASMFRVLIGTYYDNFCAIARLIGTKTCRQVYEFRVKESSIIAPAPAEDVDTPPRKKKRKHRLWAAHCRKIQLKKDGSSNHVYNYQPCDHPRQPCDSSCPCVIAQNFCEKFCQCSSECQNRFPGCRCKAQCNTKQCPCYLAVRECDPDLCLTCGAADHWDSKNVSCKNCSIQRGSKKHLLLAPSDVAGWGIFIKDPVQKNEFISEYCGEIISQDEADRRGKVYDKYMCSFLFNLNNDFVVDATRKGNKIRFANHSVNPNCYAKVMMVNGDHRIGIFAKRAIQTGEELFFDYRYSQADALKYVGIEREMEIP
Chain of wild type PRC2 (wtPRC2) complex (Q15022 whole entry partner): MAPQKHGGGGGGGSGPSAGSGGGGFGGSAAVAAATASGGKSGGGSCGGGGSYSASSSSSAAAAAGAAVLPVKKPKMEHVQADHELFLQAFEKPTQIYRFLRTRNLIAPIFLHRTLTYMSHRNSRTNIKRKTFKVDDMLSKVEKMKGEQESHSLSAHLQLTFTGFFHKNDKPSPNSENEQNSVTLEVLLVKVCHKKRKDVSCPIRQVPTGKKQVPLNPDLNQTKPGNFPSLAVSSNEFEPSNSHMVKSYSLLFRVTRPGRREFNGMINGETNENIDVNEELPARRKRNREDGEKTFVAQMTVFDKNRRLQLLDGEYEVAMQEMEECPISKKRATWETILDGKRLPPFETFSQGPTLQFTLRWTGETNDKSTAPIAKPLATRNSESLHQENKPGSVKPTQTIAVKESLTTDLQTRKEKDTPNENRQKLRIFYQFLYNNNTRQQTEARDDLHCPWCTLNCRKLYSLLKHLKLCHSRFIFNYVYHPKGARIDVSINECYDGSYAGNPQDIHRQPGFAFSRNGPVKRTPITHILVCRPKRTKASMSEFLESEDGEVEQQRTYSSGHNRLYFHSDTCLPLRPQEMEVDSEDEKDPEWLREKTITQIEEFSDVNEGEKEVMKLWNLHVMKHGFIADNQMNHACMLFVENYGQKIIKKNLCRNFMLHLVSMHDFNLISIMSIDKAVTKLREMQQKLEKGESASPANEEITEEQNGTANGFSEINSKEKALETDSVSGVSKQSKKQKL

`Cc1nc(OC(C)C)ncc1-c1cnc(NCc2c(F)ccc3c2CCO3)n2cncc12` [Example 61, N-((5-fluoro-2,3-dihydrobenzofuran-4-yl)methyl)-8-(2-isopropoxy-4-methylpyrimidin-5-yl)imidazo[1,5-c]pyrimidin-5-amine] was tested, and the IC50 (EED (1-441)-His protein) was 8.3 nM, the IC50 [1] was 22.5 nM and the IC50 [2] was 19.1 nM.

`Cc1ncccc1-c1ncn2c(NCc3c(F)ccc4c3CCO4)ncc(-c3ccc(S(C)(=O)=O)cc3)c12` [Example 112, N-((5-fluoro-2,3-dihydrobenzofuran-4-yl)methyl)-1-(2-methylpyridin-3-yl)-8-(4-(methylsulfonyl)phenyl)imidazo[1,5-c]pyrimidin-5-amine] showed an IC50 (EED (1-441)-His protein) of 10.5 nM, an IC50 [1] of 13.1 nM and an IC50 [2] of 12.1 nM.

Compound `Cc1nn(CCO)c(C)c1-c1cnc(NCc2c(F)ccc3c2CCO3)n2cnc(C#N)c12` [Example 88, 5-(((5-fluoro-2,3-dihydrobenzofuran-4-yl)methyl)amino)-8-(1-(2-hydroxyethyl)-3,5-dimethyl-1H-pyrazol-4-yl)imidazo[1,5-c]pyrimidine-1-carbonitrile] has an IC50 (EED (1-441)-His protein) of 3.4 nM, an IC50 [1] of 13 nM and an IC50 [2] of 11.7 nM.

For `Fc1ccc2c(c1CNc1ncc(-c3ccc(C(F)F)nc3)c3cncn13)CCO2` [Example 60, 8-(6-(difluoromethyl)pyridin-3-yl)-N-((5-fluoro-2,3-dihydrobenzofuran-4-yl)methyl)imidazo[1,5-c]pyrimidin-5-amine], the IC50 (EED (1-441)-His protein) was 15.3 nM, the IC50 [1] was 52.1 nM and the IC50 [2] was 11.3 nM.

For `CS(=O)(=O)c1ccc(-c2cnc(NCc3c(F)ccc4c3CCO4)n3cncc23)cn1` [Example 22, N-((5-fluoro-2,3-dihydrobenzofuran-4-yl)methyl)-8-(6-(methylsulfonyl)pyridin-3-yl)imidazo[1,5-c]pyrimidin-5-amine], the IC50 (EED (1-441)-His protein) was 5.5 nM, the IC50 [1] was 56.3 nM and the IC50 [2] was 9.8 nM.

For `CCOC(=O)c1ncn2c(NCc3cc(OC)c(F)cc3F)ncc(-c3cccnc3C)c12` [Example 96, ethyl 5-((2,4-difluoro-5-methoxybenzyl)amino)-8-(2-methylpyridin-3-yl)imidazo[1,5-c]pyrimidine-1-carboxylate], the IC50 (EED (1-441)-His protein) was 15.8 nM, the IC50 [1] was 114 nM and the IC50 [2] was 16.8 nM.

Work on `COc1cc(CNc2ncc(-c3cccnc3C)c3c(C#N)ncn23)c(F)cc1F` [Example 89, 5-((2,4-difluoro-5-methoxybenzyl)amino)-8-(2-methylpyridin-3-yl)imidazo[1,5-c]pyrimidine-1-carbonitrile] yielded an IC50 (EED (1-441)-His protein) of 29.6 nM, an IC50 [1] of 195 nM and an IC50 [2] of 42.5 nM.

Work on `Cc1ncc(-c2cnc(NCc3c(F)ccc4c3CCO4)n3cncc23)c(C)n1` [Example 1, 8-(2,4-Dimethylpyrimidin-5-yl)-N-((5-fluoro-2,3-dihydrobenzofuran-4-yl)methyl)imidazo[1,5-c]pyrimidin-5-amine] yielded an IC50 (EED (1-441)-His protein) of 7.2 nM, an IC50 [1] of 24.8 nM and an IC50 [2] of 13.2 nM.

`CCOC(=O)c1ncn2c(NCc3c(F)ccc4c3CCO4)ncc(-c3ccc(S(C)(=O)=O)cc3)c12` [Example 92, ethyl 5-(((5-fluoro-2,3-dihydrobenzofuran-4-yl)methyl)amino)-8-(4-(methylsulfonyl)phenyl)imidazo[1,5-c]pyrimidine-1-carboxylate] was tested, and the IC50 (EED (1-441)-His protein) was 5.4 nM, the IC50 [1] was 0.7 nM and the IC50 [2] was 5.9 nM.

For `Cc1ncc(-c2cnc(NCc3c(F)ccc4c3CCO4)n3cnc(S(C)(=O)=O)c23)c(C)n1` [Example 101, 8-(2,4-dimethylpyrimidin-5-yl)-N-((5-fluoro-2,3-dihydrobenzofuran-4-yl)methyl)-1-(methylsulfonyl)imidazo[1,5-c]pyrimidin-5-amine], the IC50 (EED (1-441)-His protein) was 3.6 nM, the IC50 [1] was 9.1 nM and the IC50 [2] was 13.3 nM.

Work on `C#Cc1ncn2c(NCc3c(F)ccc4c3CCO4)ncc(-c3cccnc3C)c12` [Example 12, 1-Ethynyl-N-((5-fluoro-2,3-dihydrobenzofuran-4-yl)methyl)-8-(2-methylpyridin-3-yl)imidazo[1,5-c]pyrimidin-5-amine] yielded an IC50 (EED (1-441)-His protein) of 5.4 nM, an IC50 [1] of 48.9 nM and an IC50 [2] of 6.8 nM.

`CCOC(=O)c1ncn2c(NCc3cc(OC)c(F)cc3F)ncc(-c3ccc(S(C)(=O)=O)cc3)c12` [Example 7, Ethyl 5-((2,4-difluoro-5-methoxybenzyl)amino)-8-(4-(methylsulfonyl)phenyl)imidazo[1,5-c]pyrimidine-1-carboxylate] was tested, and the IC50 (EED (1-441)-His protein) was 16.8 nM, the IC50 [1] was 236 nM and the IC50 [2] was 16.8 nM.

`Cc1nc(C(F)(F)CO)ccc1-c1cnc(NCc2c(F)ccc3c2CCO3)n2cncc12` [Example 56, 2,2-difluoro-2-(5-(5-(((5-fluoro-2,3-dihydrobenzofuran-4-yl)methyl)amino)imidazo[1,5-c]pyrimidin-8-yl)-6-methylpyridin-2-yl)ethan-1-ol] showed an IC50 (EED (1-441)-His protein) of 4.8 nM, an IC50 [1] of 20.9 nM and an IC50 [2] of 18.2 nM.

`Fc1ccc2c(c1CNc1ncc(-c3cccnc3F)c3cncn13)CCO2` [Example 21, N-((5-fluoro-2,3-dihydrobenzofuran-4-yl)methyl)-8-(2-fluoropyridin-3-yl)imidazo[1,5-c]pyrimidin-5-amine] was tested, and the IC50 (EED (1-441)-His protein) was 19.5 nM, the IC50 [1] was 35.4 nM and the IC50 [2] was 21.7 nM.

For `CN(C)c1ccc(-c2cnc(NCc3c(F)ccc4c3CCO4)n3cncc23)cn1` [Example 41, 8-(6-(dimethylamino)pyridin-3-yl)-N-((5-fluoro-2,3-dihydrobenzofuran-4-yl)methyl)imidazo[1,5-c]pyrimidin-5-amine], the IC50 (EED (1-441)-His protein) was 41.2 nM, the IC50 [1] was 51.2 nM and the IC50 [2] was 14.6 nM.

`N#Cc1ccc(-c2cnc(NCc3c(F)ccc4c3CCO4)n3cncc23)cn1` [Example 31, 5-(5-(((5-fluoro-2,3-dihydrobenzofuran-4-yl)methyl)amino)imidazo[1,5-c]pyrimidin-8-yl)picolinonitrile] was tested, and the IC50 (EED (1-441)-His protein) was 14.4 nM, the IC50 [1] was 39.9 nM and the IC50 [2] was 20.9 nM.

`Cc1nc(N2CC(C)NC(C)C2)ncc1-c1cnc(NCc2c(F)ccc3c2CCO3)n2cnc(C#N)c12` (stereo not drawn) [Example 83, 8-(2-(3,5-dimethylpiperazin-1-yl)-4-methylpyrimidin-5-yl)-5-(((5-fluoro-2,3-dihydrobenzofuran-4-yl)methyl)amino)imidazo[1,5-c]pyrimidine-1-carbonitrile] showed an IC50 (EED (1-441)-His protein) of 2.3 nM, an IC50 [1] of 13.1 nM and an IC50 [2] of 5.7 nM.

For `N#Cc1ncn2c(NCc3c(F)ccc4c3CCO4)ncc(-c3cccnc3)c12` [Example 74, 5-(((5-fluoro-2,3-dihydrobenzofuran-4-yl)methyl)amino)-8-(pyridin-3-yl)imidazo[1,5-c]pyrimidine-1-carbonitrile], the IC50 (EED (1-441)-His protein) was 5.9 nM, the IC50 [1] was 7 nM and the IC50 [2] was 15.6 nM.

`CCOC(=O)c1ncn2c(NCc3c(F)cccc3OC)ncc(-c3cccnc3C)c12` [Example 99, ethyl 5-((2-fluoro-6-methoxybenzyl)amino)-8-(2-methylpyridin-3-yl)imidazo[1,5-c]pyrimidine-1-carboxylate] showed an IC50 (EED (1-441)-His protein) of 16 nM, an IC50 [1] of 68.6 nM and an IC50 [2] of 14.6 nM.

With `Cc1ccc(-c2ncn3c(NCc4c(F)ccc5c4CCO5)ncc(-c4cccnc4C)c23)cn1` [Example 115, N-((5-fluoro-2,3-dihydrobenzofuran-4-yl)methyl)-8-(2-methylpyridin-3-yl)-1-(6-methylpyridin-3-yl)imidazo[1,5-c]pyrimidin-5-amine] the IC50 (EED (1-441)-His protein) was 6.2 nM, the IC50 [1] was 4 nM and the IC50 [2] was 17.6 nM.

`Cc1ccc(-c2cnc(NCc3c(F)ccc4c3CCO4)n3cncc23)c(C)n1` [Example 43, 8-(2,6-dimethylpyridin-3-yl)-N-((5-fluoro-2,3-dihydrobenzofuran-4-yl)methyl)imidazo[1,5-c]pyrimidin-5-amine] showed an IC50 (EED (1-441)-His protein) of 10.3 nM, an IC50 [1] of 50.9 nM and an IC50 [2] of 12.6 nM.

— US10676479B2, “Imidazolepyridine compounds and uses thereof” (Novartis AG, priority 2016, dated 2020)
